# Source: patent US8691859B2 (priority 2005, dated 2014)
# What was measured:
# [1] = tested on: B. anthracis GFP sterne spores; assay: microbe, parasite or virus in culture; format: cell-based; conditions: for MIC: Bacillus anthracis, read-out: MIC B. anthracis spores
# [2] = tested on: B. anthracis GFP sterne vegetative cells; assay: microbe, parasite or virus in culture; format: cell-based; conditions: Bacillus anthracis, read-out: MIC B. anthracis vegetative cells
# anthrax lethal factor = anthrax lethal factor (Bacillus anthracis, UniProt P15917); format: biochemical
# Sequence of anthrax lethal factor (P15917 34-809 limits assumed): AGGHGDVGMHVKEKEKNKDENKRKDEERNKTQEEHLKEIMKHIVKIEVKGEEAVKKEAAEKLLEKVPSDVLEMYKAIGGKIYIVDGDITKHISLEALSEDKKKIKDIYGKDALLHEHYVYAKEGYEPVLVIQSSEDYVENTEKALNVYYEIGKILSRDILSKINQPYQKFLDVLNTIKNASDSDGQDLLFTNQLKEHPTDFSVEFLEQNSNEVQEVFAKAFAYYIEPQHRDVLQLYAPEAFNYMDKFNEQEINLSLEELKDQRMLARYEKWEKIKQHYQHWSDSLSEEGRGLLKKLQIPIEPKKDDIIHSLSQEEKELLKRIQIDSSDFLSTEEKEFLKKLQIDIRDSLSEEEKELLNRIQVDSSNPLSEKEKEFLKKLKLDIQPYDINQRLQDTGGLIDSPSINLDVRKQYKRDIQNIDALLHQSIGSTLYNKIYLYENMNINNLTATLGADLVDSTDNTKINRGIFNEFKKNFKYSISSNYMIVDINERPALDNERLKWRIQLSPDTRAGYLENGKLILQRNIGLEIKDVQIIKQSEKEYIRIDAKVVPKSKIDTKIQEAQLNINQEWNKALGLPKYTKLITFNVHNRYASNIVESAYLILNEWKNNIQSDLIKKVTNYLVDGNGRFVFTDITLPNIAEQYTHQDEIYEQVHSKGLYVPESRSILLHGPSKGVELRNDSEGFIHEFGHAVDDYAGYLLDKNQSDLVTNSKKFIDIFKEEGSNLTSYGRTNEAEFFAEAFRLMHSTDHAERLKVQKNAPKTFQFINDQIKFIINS
Compound,MIC B. anthracis spores [1] [µg/mL],MIC [2] [µg/mL],inhibition of the protease activity of anthrax lethal factor (anthrax lethal factor),MIC [1] [µg/mL]
"c1cc(-c2[nH]c3cc(C4=NCCN4)ccc3c2-c2cc3ccc(C4=NCCN4)cc3[nH]2)ccc1C1=NCCN1 [NSC 341911, 6-(4,5-dihydro-1H-imidazol-2-yl)-3-[6-(4,5-dihydro-1H-imidazol-2-yl)-1H-indol-2-yl]-2-[4-(4,5-dihydro-1H-imidazol-2-yl)phenyl]-1H-indole]",24.88,24.9,inhibit,
"C(=C\c1cc2cc(C3=NCCN3)ccc2o1)/c1cc2cc(C3=NCCN3)ccc2[nH]1 [NSC 290108, 5-(4,5-dihydro-1H-imidazol-2-yl)-2-[(E)-2-[5-(4,5-dihydro-1H-imidazol-2-yl)benzofuran-2-yl]ethenyl]-1H-indole]",,> 18.5,inhibit,18.5
"N=C(N)c1ccc(/C=C/C=C/c2cc3cc(C(=N)N)ccc3o2)cc1 [NSC 308572, 2-[(1E,3E)-4-(4-carbamimidoylphenyl)buta-1,3-dienyl]benzofuran-5-carboximidamide]",,16.1,inhibit,8.06
"C(=C\c1cc2ccc(C3=NCCN3)cc2o1)/c1cc2cc(C3=NCCN3)ccc2[nH]1 [NSC 294204, 5-(4,5-dihydro-1H-imidazol-2-yl)-2-[(E)-2-[6-(4,5-dihydro-1H-imidazol-2-yl)benzofuran-2-yl]ethenyl]-1H-indole]",,> 18.7,inhibit,18.7
"Cc1c(/C=C/c2oc3ccc(C(=N)N)cc3c2C)oc2ccc(C(=N)N)cc12 [NSC 266474, 2-[(E)-2-(5-carbamimidoyl-3-methyl-benzofuran-2-yl)ethenyl]-3-methyl-benzofuran-5-carboximidamide]",,> 17.8,inhibit,> 17.8
"N=C(N)c1ccc2cc(/C=C/c3cc4ccc(C(=N)N)cc4o3)[nH]c2c1 [NSC 294200, 2-[(E)-2-(6-carbamimidoylbenzofuran-2-yl)ethenyl]-1H-indole-6-carboximidamide]",,4.16,inhibit,2.08
"C(=C\c1cc2ccc(C3=NCCN3)cc2[nH]1)/c1ccc(C2=NCCN2)cc1 [NSC 317887, 6-(4,5-dihydro-1H-imidazol-2-yl)-2-[(E)-2-[4-(4,5-dihydro-1H-imidazol-2-yl)phenyl]ethenyl]-1H-indole]",,> 17.1,inhibit,8.56
"C(=C\c1cc2ccc(C3=NCCN3)cc2[nH]1)/c1ccc2cc(C3=NCCN3)[nH]c2c1 [NSC 341907, 6-(4,5-dihydro-1H-imidazol-2-yl)-2-[(E)-2-[2-(4,5-dihydro-1H-imidazol-2-yl)-1H-indol-6-yl]ethenyl]-1H-indole]",,18.7,inhibit,9.34
"O=C(Nc1ccc(C2=NCCN2)cc1)c1cc2ccc(C3=NCCN3)cc2[nH]1 [NSC 294206, 6-(4,5-dihydro-1H-imidazol-2-yl)-N-[4-(4,5-dihydro-1H-imidazol-2-yl)phenyl]-1H-indole-2-carboxamide]",,17.8,inhibit,8.9
"N=C(N)c1ccc2[nH]c(/C=C/c3cc4ccc(C(=N)N)cc4o3)cc2c1 [NSC 294203, 2-[(E)-2-(6-carbamimidoylbenzofuran-2-yl)ethenyl]-1H-indole-5-carboximidamide]",,> 16.6,inhibit,16.6
"C/C(=C\c1cc2cc(C(=N)N)ccc2o1)c1cc2cc(C(=N)N)ccc2o1 [NSC 266476, 2-[(E)-1-(5-carbamimidoylbenzofuran-2-yl)prop-1-en-2-yl]benzofuran-5-carboximidamide]",,> 17.2,inhibit,> 17.2
